Test results taken from patent US20240091226A1, “Forms and Formulations Of A Tyrosine Kinase Non-Receptor 1 (TNK1) Inhibitor” (Sumitomo Pharma Oncology, inc., priority 2021, published 2024).
In brackets after ≈: the same amount, converted by molar mass. Entries after “also recorded” stand apart in the source; their conditions may differ.

Tests used:
[1] = Kinetic solubility in water, SGF and FaSSIF at 37° C.; type: physicochemical; conditions: for Kinetic solubility in water (in words): Freebase Type E+F as control
Protocol: Kinetic Solubility. Kinetic solubility of salt leads was measured in water, SGF and FaSSIF to evaluate their solubility and disproportionation risk, using Freebase Type E+F (818718-01-A) as control. […] After centrifugation, supernatants were collected for HPLC and pH tests, and wet cakes were collected for XRPD characterization.

[2] = Hygroscopicity by dynamic vapor sorption (DVS); type: physicochemical; conditions: for Hygroscopicity (%), water uptake: DVS, 25° C./80% RH; for Form Change after DVS: XRPD before and after DVS
Protocol: Hygroscopicity. DVS isotherm plot was collected at 25° C. to investigate the solid form stability as a function of humidity. All of Freebase Type E+F, L-Malate Type B, Succinate Type B and Mesylate Type A were equilibrated at ambient humidity (70% RH or 80% RH) to prevent form change before testing.
DVS. Dynamic Vapor Sorption (DVS) was measured via a SMS (Surface Measurement Systems) DVS Intrinsic. The relative humidity at 25° C. was calibrated against deliquescence point of LiCl, Mg(NO3)2 and KCl.

[3] = Two-week solid-state stability (XRPD, HPLC purity); type: physicochemical; conditions: two weeks; for Stress stability / solid-state physical and chemical stability (in words): 25° C./60% RH and 40° C./75% RH (open); for Purity (area %) after storage / Purity vs Initial (%): open
Protocol: Solid-state Stability. Solid-state stability of Freebase Type E+F (818718-01-A), L-Malate Type B (818718-21-A1) and Mesylate Type A (818718-21-A5) were evaluated under 25° C./60% RH and 40° C./75% RH (open) for two weeks. Stability samples were characterized by XRPD to check any solid form change, and by HPLC to check purity change.

Apc^Min+/− mice = assay: ApcMin mouse efficacy model; type: in vivo
Protocol: TNK1 upregulation is reported to play a role in the pathogenic process of intestinal barrier disruption in a transgenic mice model of increased TNK1 expression/activation (PMID: 30320600). Therefore, the efficacy of the compound of structural formula I was evaluated in germline mutant mouse model of intestinal neoplasia and cachexia, Apc^Min+/− model, which is also known to induce gut barrier dysfunction (PMID: 21914473). Apc^Min+/− mice are reported to start the development of tumors at approximately 4 weeks of age. Twenty female Apc^Min+/− mice (JAX Stock No: 002020) were enrolled in the study at the age of 10 weeks. Randomization was done based on the body weight, and animals were divided into four treatment groups (5 mice/group). […] Celecoxib is a COX-2 inhibitor, and was used as a positive control because it has been reported to prevent and regress adenomas in APC model (PMID: 11016626). Mice were sacrificed 2 hours after the last dose of total 10 weeks of dosing (71 days), at the age of 20 weeks. After dosing started, the animals were checked daily for morbidity and mortality.

Row | SMILES | S: solubility ([1]; FaSSIF, 1 hr) [µg/mL] | pH: final pH ([1]; FaSSIF, 1 hr) | S: solubility ([1]; FaSSIF, 4 hrs) [µg/mL] | pH: final pH ([1]; FaSSIF, 4 hrs) | S: solubility ([1]; FaSSIF, 24 hrs) [µg/mL] | pH: final pH ([1]; FaSSIF, 24 hrs) | S: solubility ([1]; H2O, 1 hr) [µg/mL] | pH: final pH ([1]; H2O, 1 hr) | S: solubility ([1]; H2O, 4 hrs) [µg/mL] | pH: final pH ([1]; H2O, 4 hrs) | S: solubility ([1]; H2O, 24 hrs) [µg/mL] | pH: final pH ([1]; H2O, 24 hrs) | Kinetic solubility in SGF (in words) ([1]; SGF) | pH: final pH ([1]; SGF, 1 hr) | pH: final pH ([1]; SGF, 4 hrs) | pH: final pH ([1]; SGF, 24 hrs) | Hygroscopicity (%), water uptake [2] [%] | Form Change after DVS [2] | Stress stability / solid-state physical and chemical stability (in words) [3] | Purity (area %) after storage ([3]; 25° C./60% RH) [area %] | also measured
1 | COc1cc(N2CCN(C)CC2)c(Cl)cc1Nc1ncc(Cl)c(Nc2cccnc2N2CCCC2=O)n1 [Mesylate Type A] | 370 | 6.4 | 360 | 6.3 | 340 | 6.2 | 7500 | 6.1 | 7500 | 6.2 | 7400 | 6.0 | showed relatively high solubility in SGF at 37 °C L-Malate | 2.5 | 2.6 | 2.5 | 2.74 | No form change and No | good physical and chemical stability; also recorded: good physicochemical stability; also recorded: good physiochemical stability | 99.31 | FC: form change ([1]; FaSSIF, 1 hr): new form with low crystallinity and Yes; FC: form change ([1]; FaSSIF, 4 hrs): Yes; FC: form change ([1]; FaSSIF, 24 hrs): Yes; S: solubility ([1]; SGF, 1 hr): 8200 µg/mL; S: solubility ([1]; SGF, 4 hrs): 8000 µg/mL; S: solubility ([1]; SGF, 24 hrs): 7400 µg/mL; Kinetic solubility in water (in words) [1]: increased solubility; Purity vs Initial (%) ([3]; 25° C./60% RH): 100.1%; Purity (area %) after storage ([3]; 40° C./75% RH): 99.43 area %; Purity vs Initial (%) ([3]; 40° C./75% RH): 100.2%
2 | COc1cc(N2CCN(C)CC2)c(Cl)cc1Nc1ncc(Cl)c(Nc2cccnc2N2CCCC2=O)n1 [L-Malate Type B] | 7200 | 5.0 | 6900 | 4.9 | 7400 | 4.9 | 7100 | 4.0 | 7200 | 4.0 | 6700 | 4.1 | showed relatively high solubility in SGF at 37 °C L-Malate | 3.2 | 3.1 | 3.2 | 3.00 | No form change and No | good physical and chemical stability; also recorded: good physicochemical stability | 98.97 | Kinetic solubility in FaSSIF (in words) ([1]; FaSSIF, compared with Mesylate Type A and Freebase Type E+F): Type B showed much higher solubility than Mesylate Type A; S: solubility ([1]; SGF, 1 hr): 7600 µg/mL; S: solubility ([1]; SGF, 4 hrs): 7700 µg/mL; S: solubility ([1]; SGF, 24 hrs): 6900 µg/mL; Kinetic solubility in water (in words) [1]: increased solubility; Purity vs Initial (%) ([3]; 25° C./60% RH): 100.0%; Purity (area %) after storage ([3]; 40° C./75% RH): 98.96 area %; Purity vs Initial (%) ([3]; 40° C./75% RH): 100.0%
3 | Cc1ccc(-c2cc(C(F)(F)F)nn2-c2ccc(S(N)(=O)=O)cc2)cc1 [celecoxib, reference compound] | – | – | – | – | – | – | – | – | – | – | – | – | – | – | – | – | – | – | – | – | reduction of spleen size compared to vehicle (Apc^Min+/− mice; 120 mg/kg): approximately 26%; decrease in number of polyps in the intestine compared to vehicle (Apc^Min+/− mice; 120 mg/kg once daily oral gavage, 10 weeks, female Apc^Min+/− mice): approximately 90%
4 | COc1cc(N2CCN(C)CC2)c(Cl)cc1Nc1ncc(Cl)c(Nc2cccnc2N2CCCC2=O)n1 [Freebase Type E+F] | 170 | 6.6 | 180 | 5.6 | 110 | 6.5 | 1.2 | 8.8 | 1.2 | 8.6 | 2.4 | 8.4 | relatively high solubility | 5.4 | 5.4 | 6.2 | 1.55 | No form change | good physical and chemical stability; also recorded: good physicochemical stability | 98.64 | FC: form change ([1]; FaSSIF, 1 hr): Yes; FC: form change ([1]; FaSSIF, 4 hrs): Yes; FC: form change ([1]; FaSSIF, 24 hrs): Yes; FC: form change ([1]; H2O, 1 hr): Yes; FC: form change ([1]; H2O, 4 hrs): Yes; FC: form change ([1]; H2O, 24 hrs): Yes; solubility at 1 h ([1]; SGF, 37 °C, simulated gastric fluid, thermodynamic from solid, SGF, 1 hr, read-out: S: solubility): 7100 µg/mL (≈ 13.1 mM); solubility at 4 h ([1]; SGF, 37 °C, simulated gastric fluid, thermodynamic from solid, SGF, 4 hrs, read-out: S: solubility): 7200 µg/mL (≈ 13.2 mM); solubility at 24 h ([1]; SGF, 37 °C, simulated gastric fluid, thermodynamic from solid, SGF, 24 hrs, read-out: S: solubility): 7200 µg/mL (≈ 13.2 mM); FC: form change ([1]; SGF, 1 hr): Yes; FC: form change ([1]; SGF, 4 hrs): Yes; FC: form change ([1]; SGF, 24 hrs): Yes; Kinetic solubility in SGF (in words) ([1]; SGF, listed as Freebase Type E + F): showed relatively high solubility in SGF at 37 °C L-Malate; form after kinetic solubility test ([1]; all the three media (water, SGF, FaSSIF)): turned to Freebase Type E; Hygroscopicity (%), water uptake ([2]; listed as Freebase Type E + F): hygroscopic (1.55) %; Form Change after DVS ([2]; listed as Freebase Type E + F): No; Hygroscopicity (class) ([2]; based on water uptake at 25° C./80% RH): slightly hygroscopic (slightly hygroscopic - 0.2~2%); Purity vs Initial (%) ([3]; 25° C./60% RH): 100.0%; Purity (area %) after storage ([3]; 40° C./75% RH): 98.75 area %; Purity vs Initial (%) ([3]; 40° C./75% RH): 100.1%
5 | COc1cc(N2CCN(C)CC2)c(Cl)cc1Nc1ncc(Cl)c(Nc2cccnc2N2CCCC2=O)n1 [Succinate Type B] | – | – | – | – | – | – | – | – | – | – | – | – | – | – | – | – | 8.22 | No form change | – | – | –
